{"source": "paper PMC10895652", "about": "“Preclinical Evaluation of Novel Positron Emission Tomography (PET) Probes for Imaging Leucine-Rich Repeat Kinase 2 (LRRK2)” (Journal of Medicinal Chemistry, 2024)", "key": {"[1]": {"assay": "Ex vivo whole-body biodistribution in mice", "parameters": "species or system CD-1 mice", "details": "for Ex vivo biodistribution: mean ± SD, n = 4", "experimental": "The general procedure for ex vivo biodistribution studies was described previously[35],[41] with minor modification in this work. Briefly, a solution of [^18F]4 (50 μCi/100 μL) was injected into CD-1 mice via tail vein. These mice (each time point n = 4) were sacrificed at 5, 15, 30, and 60 min post tracer injection. Major organs, including whole brain, heart, liver, lung, spleen, kidneys, small intestine (including contents), muscle, and blood samples, were quickly harvested and weighted. The radioactivity present in these tissues was measured using a Cobra Model 5002/5003 γ counter, and all radioactivity measurements were automatically decay-corrected based on the half-life of fluorine-18. The results are expressed as the percentage of injected dose per gram of wet tissue (%ID/g)."}, "LRRK2 [2]": {"biological_target": "T1, LRRK2 (Mus musculus, UniProt Q5S006)", "T1 construct": "from tissue; host or cells: brain of living CD-1 mice, i.c.v; LPS or saline", "T1 sequence (Q5S006 whole entry)": "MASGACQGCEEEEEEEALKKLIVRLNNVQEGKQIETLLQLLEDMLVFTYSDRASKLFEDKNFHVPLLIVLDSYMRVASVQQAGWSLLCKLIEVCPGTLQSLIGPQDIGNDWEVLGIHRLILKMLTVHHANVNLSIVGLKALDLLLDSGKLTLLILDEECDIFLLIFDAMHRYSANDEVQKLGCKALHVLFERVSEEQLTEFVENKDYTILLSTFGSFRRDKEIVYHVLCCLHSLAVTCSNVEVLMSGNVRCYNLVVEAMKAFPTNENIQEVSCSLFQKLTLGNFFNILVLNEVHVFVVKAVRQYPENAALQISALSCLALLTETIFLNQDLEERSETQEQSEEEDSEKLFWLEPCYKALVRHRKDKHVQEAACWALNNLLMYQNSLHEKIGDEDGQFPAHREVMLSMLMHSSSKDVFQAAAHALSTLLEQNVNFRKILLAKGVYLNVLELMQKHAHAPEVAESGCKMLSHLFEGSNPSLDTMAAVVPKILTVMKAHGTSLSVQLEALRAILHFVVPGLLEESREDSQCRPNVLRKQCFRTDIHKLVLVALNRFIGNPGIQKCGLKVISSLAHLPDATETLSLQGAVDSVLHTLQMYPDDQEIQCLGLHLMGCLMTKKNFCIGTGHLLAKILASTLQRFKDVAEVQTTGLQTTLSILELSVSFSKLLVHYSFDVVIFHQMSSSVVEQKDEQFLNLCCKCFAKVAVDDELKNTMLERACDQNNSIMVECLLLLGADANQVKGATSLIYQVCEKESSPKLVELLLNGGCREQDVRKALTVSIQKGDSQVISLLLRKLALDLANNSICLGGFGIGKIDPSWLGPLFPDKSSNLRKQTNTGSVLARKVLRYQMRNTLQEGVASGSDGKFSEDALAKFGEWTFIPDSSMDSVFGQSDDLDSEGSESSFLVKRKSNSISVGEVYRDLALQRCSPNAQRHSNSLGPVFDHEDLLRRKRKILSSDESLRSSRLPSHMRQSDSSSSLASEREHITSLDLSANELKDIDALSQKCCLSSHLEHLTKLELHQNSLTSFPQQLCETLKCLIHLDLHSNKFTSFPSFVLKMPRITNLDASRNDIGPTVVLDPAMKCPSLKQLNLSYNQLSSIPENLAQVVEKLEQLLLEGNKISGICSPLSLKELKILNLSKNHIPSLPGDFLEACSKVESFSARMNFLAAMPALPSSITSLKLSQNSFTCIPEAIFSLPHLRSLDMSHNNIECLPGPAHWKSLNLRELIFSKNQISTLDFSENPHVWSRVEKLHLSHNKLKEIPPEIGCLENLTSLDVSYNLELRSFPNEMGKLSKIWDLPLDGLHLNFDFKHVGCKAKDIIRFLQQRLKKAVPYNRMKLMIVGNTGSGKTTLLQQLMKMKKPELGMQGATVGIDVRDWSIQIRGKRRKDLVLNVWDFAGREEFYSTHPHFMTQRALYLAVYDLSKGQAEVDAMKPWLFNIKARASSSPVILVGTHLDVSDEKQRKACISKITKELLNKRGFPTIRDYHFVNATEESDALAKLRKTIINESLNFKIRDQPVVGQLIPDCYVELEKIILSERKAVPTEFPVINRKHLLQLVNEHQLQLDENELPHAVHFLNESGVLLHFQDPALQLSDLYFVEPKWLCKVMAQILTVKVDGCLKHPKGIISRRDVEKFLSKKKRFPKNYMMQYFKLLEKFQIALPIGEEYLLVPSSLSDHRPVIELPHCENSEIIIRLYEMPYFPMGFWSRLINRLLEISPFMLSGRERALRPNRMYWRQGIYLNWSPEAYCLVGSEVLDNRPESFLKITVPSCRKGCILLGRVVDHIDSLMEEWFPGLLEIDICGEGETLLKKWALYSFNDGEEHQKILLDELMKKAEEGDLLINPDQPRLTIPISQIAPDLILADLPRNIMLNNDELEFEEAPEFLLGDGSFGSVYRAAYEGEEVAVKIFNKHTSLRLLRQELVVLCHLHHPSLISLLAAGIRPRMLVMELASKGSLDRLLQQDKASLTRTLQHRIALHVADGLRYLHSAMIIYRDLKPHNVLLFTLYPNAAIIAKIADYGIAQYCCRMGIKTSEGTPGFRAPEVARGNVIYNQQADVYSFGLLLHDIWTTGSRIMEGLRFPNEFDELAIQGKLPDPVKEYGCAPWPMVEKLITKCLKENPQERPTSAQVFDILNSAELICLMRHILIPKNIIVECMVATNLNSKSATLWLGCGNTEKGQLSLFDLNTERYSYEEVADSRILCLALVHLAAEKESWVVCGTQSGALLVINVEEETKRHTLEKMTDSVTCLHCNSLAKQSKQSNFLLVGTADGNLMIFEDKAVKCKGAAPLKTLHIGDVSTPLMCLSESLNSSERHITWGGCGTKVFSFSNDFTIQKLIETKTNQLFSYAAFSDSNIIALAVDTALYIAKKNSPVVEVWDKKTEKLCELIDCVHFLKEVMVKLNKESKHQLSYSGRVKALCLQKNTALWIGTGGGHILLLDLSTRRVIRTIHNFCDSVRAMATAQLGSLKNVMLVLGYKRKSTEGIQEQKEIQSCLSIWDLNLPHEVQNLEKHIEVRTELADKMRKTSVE", "assay": "PET imaging in LPS-injected neuroinflammatory mouse model", "assay_type": "in vivo", "details": "brain, LPS-injected mice versus sham group (PBS)", "experimental": "The CD-1 mice were anesthetized and secured in a stereotaxic frame. The skull was exposed and stereotaxic coordinates (−2.6 mm dorsal/ventral, −1.5 mm lateral, and −0.2 mm anterior/posterior from bregma) according to the procedure by Haley and McCormick.[43] The i.c.v. injections of 10 μg (in 2 μL of saline) of LPS and saline (control group) injections were administered using a microsyringe. The behavior of each mouse was characterized and recorded in the form of scores, including appearance, activity, level of consciousness, eyes, respiration rate, and respiration quality. Scores were determined by summing up the individual scores (Figure S10).\nThe general procedure for PET studies was described previously[35],[41] with minor modification in this work. Briefly, PET scans were carried out by a Genisys 4 PET scanner (Sofie Biosciences, Culver, CA). Mice were kept under anesthesia using 1–2% (v/v) isoflurane during the scan. The radiotracer (ca. 45 μCi/100 μL) was injected into the tail vein via a preinstalled catheter. A dynamic scan in 3D list mode was acquired for 60 min. The PET dynamic images were reconstructed using G4 software (Analysis Tools and System Setup/Diagnostics Tool, Sofie Biosciences). The radioactivity was decay-corrected and expressed as the standardized uptake value: SUV = (radioactivity per mL tissue/injected radioactivity) × body weight."}, "[3]": {"assay": "Radiometabolic analysis in mouse brain homogenate", "assay_type": "in vivo", "details": "30 min post tracer administration", "experimental": "With the established good BBB penetration ability of [^18F]4, we then performed ex vivo biodistribution studies to obtain more in-depth information on the whole-body distribution and clearance of [^18F]4. Mice were sorted into four groups based on their survival intervals (5, 15, 30, and 60 min) after intravenous administration of [^18F]4. […] To investigate the in vivo stability of [^18F]4 in mouse brains, we conducted a radiometabolic analysis in mouse brain homogenate at 30 min post tracer administration."}, "[4]": {"assay": "Radiometabolite analysis in rat plasma (radio-HPLC)", "assay_type": "in vivo", "details": "rats", "experimental": "(§1) The promising pharmacological, pharmacokinetic, and in vitro autoradiographic data encouraged us to carry out preliminary dynamic PET imaging studies of [^11C]3 and [^18F]4. […] Given the superiority of fluorine-18 such as clean positron emission, low positron range, and relatively long half-life compared with carbon-11, [^18F]4 was subjected to further investigation (Figure 6). A blocking scan was carried out with intravenous administration of compound 3 (1 mg/kg) prior to tracer injection. For both baseline and blocking studies, blood samples were extracted from the artery. Both whole-blood and plasma radioactivity concentrations were evaluated, and radiometabolites were measured in plasma samples by radio high-performance liquid chromatography (HPLC) to generate metabolite-corrected input function (Figure S2). Compartmental analyses with one- and two-tissue compartment models (1TCM and 2TCM) were carried out on regional time–activity curves. […] In the baseline study, VT of various brain regions ranged from 2.2 to 2.9 mL/cm^3, confirming the high binding of the radiotracer."}, "LRRK2 [5]": {"biological_target": "T2, LRRK2 (Rattus norvegicus, UniProt F1LNJ1)", "T2 construct": "from tissue; host or cells: rat brain (Sprague-Dawley rats)", "T2 sequence (F1LNJ1 1-2526)": "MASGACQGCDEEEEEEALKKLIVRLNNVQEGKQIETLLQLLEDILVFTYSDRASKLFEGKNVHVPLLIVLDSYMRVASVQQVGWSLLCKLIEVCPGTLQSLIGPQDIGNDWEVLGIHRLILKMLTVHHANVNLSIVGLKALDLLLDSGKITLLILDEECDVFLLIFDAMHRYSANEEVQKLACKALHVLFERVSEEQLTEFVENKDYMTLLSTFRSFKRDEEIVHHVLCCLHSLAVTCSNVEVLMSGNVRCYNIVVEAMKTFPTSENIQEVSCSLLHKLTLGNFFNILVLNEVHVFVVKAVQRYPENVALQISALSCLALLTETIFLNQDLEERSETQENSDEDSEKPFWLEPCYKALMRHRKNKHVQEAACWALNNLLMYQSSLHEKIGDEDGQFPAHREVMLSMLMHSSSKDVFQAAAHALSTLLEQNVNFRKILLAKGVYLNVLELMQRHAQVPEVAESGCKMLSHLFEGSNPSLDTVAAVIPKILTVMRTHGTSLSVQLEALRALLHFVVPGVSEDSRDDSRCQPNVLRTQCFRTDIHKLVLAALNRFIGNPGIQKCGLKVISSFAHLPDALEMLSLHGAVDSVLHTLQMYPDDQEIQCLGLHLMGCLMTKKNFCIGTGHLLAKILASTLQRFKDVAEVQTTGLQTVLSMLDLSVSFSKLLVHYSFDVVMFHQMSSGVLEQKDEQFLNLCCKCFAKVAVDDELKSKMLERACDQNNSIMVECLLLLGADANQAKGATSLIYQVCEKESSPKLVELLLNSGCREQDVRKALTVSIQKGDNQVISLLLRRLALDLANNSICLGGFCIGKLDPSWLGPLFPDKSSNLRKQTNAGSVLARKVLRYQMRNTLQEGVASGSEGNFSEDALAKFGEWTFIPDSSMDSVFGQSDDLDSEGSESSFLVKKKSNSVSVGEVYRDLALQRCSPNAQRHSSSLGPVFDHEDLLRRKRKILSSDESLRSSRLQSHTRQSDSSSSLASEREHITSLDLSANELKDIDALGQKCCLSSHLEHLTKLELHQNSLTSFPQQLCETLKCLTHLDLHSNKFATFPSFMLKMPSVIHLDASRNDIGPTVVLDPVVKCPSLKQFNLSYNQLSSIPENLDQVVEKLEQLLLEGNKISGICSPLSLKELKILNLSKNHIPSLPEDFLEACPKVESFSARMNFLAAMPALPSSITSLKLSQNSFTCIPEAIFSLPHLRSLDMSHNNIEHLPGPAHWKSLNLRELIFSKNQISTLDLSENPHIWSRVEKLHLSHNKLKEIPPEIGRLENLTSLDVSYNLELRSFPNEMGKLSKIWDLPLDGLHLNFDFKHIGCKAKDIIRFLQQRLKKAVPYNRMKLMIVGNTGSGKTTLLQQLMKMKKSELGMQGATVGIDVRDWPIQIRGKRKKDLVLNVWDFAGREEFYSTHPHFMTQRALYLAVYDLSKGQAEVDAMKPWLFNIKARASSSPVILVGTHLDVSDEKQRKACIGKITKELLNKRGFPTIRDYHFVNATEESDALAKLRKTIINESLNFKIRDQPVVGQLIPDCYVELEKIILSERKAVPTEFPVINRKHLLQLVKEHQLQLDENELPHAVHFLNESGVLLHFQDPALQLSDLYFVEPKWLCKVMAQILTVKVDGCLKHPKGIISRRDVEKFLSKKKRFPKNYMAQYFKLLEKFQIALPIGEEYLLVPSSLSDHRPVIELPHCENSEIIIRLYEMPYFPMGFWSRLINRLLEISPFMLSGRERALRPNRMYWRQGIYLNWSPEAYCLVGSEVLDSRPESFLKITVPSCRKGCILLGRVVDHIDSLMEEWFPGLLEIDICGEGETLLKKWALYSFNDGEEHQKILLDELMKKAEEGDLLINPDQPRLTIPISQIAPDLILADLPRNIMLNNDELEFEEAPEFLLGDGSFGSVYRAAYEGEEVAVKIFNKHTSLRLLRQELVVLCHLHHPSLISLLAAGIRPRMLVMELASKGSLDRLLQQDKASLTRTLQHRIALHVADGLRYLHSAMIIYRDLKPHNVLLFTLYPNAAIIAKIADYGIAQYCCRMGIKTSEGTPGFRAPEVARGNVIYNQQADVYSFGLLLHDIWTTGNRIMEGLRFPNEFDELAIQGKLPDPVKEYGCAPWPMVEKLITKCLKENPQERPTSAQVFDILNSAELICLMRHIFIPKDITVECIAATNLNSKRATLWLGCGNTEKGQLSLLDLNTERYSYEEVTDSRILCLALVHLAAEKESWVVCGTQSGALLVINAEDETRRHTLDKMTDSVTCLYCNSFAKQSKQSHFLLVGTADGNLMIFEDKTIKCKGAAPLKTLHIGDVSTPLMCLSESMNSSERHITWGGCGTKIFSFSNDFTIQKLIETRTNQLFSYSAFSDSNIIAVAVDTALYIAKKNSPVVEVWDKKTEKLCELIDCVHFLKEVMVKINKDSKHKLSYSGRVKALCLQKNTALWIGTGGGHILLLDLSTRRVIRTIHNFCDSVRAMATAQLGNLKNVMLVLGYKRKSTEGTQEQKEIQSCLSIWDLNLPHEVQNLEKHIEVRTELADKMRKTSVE", "assay": "PET imaging in rats with arterial blood sampling (2TCM, VT)", "assay_type": "in vivo", "details": "compound 3 (1 mg/kg) i.v. prior to tracer injection", "experimental": "as §1\nThe general procedure for PET studies was described previously[35],[41] with minor modification in this work. […] The radioactivity was decay-corrected and expressed as the standard uptake value: SUV = (radioactivity per mL tissue/injected radioactivity) × body weight."}}}
{"smiles": "N#Cc1cccc(-c2c[nH]c3ncnc(N4CCOCC4)c23)c1[18F]", "note": "[[^18F]4]", "values": [{"measurement": "de-radiofluorination in vivo", "setting": "[1]; biodistribution study, up to 60 min", "value": "no remarkable de-radiofluorination"}, {"measurement": "Ex vivo biodistribution", "setting": "[1]; blood, 5 min", "value": "1.98 ± 0.08", "unit": "%ID/g"}, {"measurement": "Ex vivo biodistribution", "setting": "[1]; blood, 15 min", "value": "1.12 ± 0.16", "unit": "%ID/g"}, {"measurement": "Ex vivo biodistribution", "setting": "[1]; blood, 30 min", "value": "0.60 ± 0.08", "unit": "%ID/g"}, {"measurement": "Ex vivo biodistribution", "setting": "[1]; blood, 60 min", "value": "0.37 ± 0.09", "unit": "%ID/g"}, {"measurement": "Ex vivo biodistribution", "setting": "[1]; bone, 5 min", "value": "2.89 ± 2.05", "unit": "%ID/g"}, {"measurement": "Ex vivo biodistribution", "setting": "[1]; bone, 15 min", "value": "1.06 ± 0.23", "unit": "%ID/g"}, {"measurement": "Ex vivo biodistribution", "setting": "[1]; bone, 30 min", "value": "0.57 ± 0.05", "unit": "%ID/g"}, {"measurement": "Ex vivo biodistribution", "setting": "[1]; bone, 60 min", "value": "0.82 ± 0.22", "unit": "%ID/g"}, {"measurement": "Ex vivo biodistribution", "setting": "[1]; brain, 5 min", "value": "3.61 ± 0.74", "unit": "%ID/g"}, {"measurement": "Ex vivo biodistribution", "setting": "[1]; brain, 15 min", "value": "0.91 ± 0.21", "unit": "%ID/g"}, {"measurement": "Ex vivo biodistribution", "setting": "[1]; brain, 30 min", "value": "0.14 ± 0.01", "unit": "%ID/g"}, {"measurement": "Ex vivo biodistribution", "setting": "[1]; brain, 60 min", "value": "0.04 ± 0.01", "unit": "%ID/g"}, {"measurement": "Ex vivo biodistribution", "setting": "[1]; heart, 5 min", "value": "3.63 ± 0.10", "unit": "%ID/g"}, {"measurement": "Ex vivo biodistribution", "setting": "[1]; heart, 15 min", "value": "1.49 ± 0.17", "unit": "%ID/g"}, {"measurement": "Ex vivo biodistribution", "setting": "[1]; heart, 30 min", "value": "0.49 ± 0.07", "unit": "%ID/g"}, {"measurement": "Ex vivo biodistribution", "setting": "[1]; heart, 60 min", "value": "0.25 ± 0.03", "unit": "%ID/g"}, {"measurement": "Ex vivo biodistribution", "setting": "[1]; kidneys, 5 min", "value": "9.96 ± 1.01", "unit": "%ID/g"}, {"measurement": "Ex vivo biodistribution", "setting": "[1]; kidneys, 15 min", "value": "6.41 ± 0.76", "unit": "%ID/g"}, {"measurement": "Ex vivo biodistribution", "setting": "[1]; kidneys, 30 min", "value": "2.74 ± 0.12", "unit": "%ID/g"}, {"measurement": "Ex vivo biodistribution", "setting": "[1]; kidneys, 60 min", "value": "1.32 ± 0.15", "unit": "%ID/g"}, {"measurement": "Ex vivo biodistribution", "setting": "[1]; liver, 5 min", "value": "24.68 ± 10.36", "unit": "%ID/g"}, {"measurement": "Ex vivo biodistribution", "setting": "[1]; liver, 15 min", "value": "15.53 ± 2.40", "unit": "%ID/g"}, {"measurement": "Ex vivo biodistribution", "setting": "[1]; liver, 30 min", "value": "7.34 ± 0.78", "unit": "%ID/g"}, {"measurement": "Ex vivo biodistribution", "setting": "[1]; liver, 60 min", "value": "3.97 ± 1.30", "unit": "%ID/g"}, {"measurement": "Ex vivo biodistribution", "setting": "[1]; lungs, 5 min", "value": "8.88 ± 2.99", "unit": "%ID/g"}, {"measurement": "Ex vivo biodistribution", "setting": "[1]; lungs, 15 min", "value": "5.46 ± 2.28", "unit": "%ID/g"}, {"measurement": "Ex vivo biodistribution", "setting": "[1]; lungs, 30 min", "value": "2.86 ± 0.67", "unit": "%ID/g"}, {"measurement": "Ex vivo biodistribution", "setting": "[1]; lungs, 60 min", "value": "1.65 ± 0.35", "unit": "%ID/g"}, {"measurement": "Ex vivo biodistribution", "setting": "[1]; muscle, 5 min", "value": "2.34 ± 1.06", "unit": "%ID/g"}, {"measurement": "Ex vivo biodistribution", "setting": "[1]; muscle, 15 min", "value": "2.04 ± 2.24", "unit": "%ID/g"}, {"measurement": "Ex vivo biodistribution", "setting": "[1]; muscle, 30 min", "value": "0.38 ± 0.11", "unit": "%ID/g"}, {"measurement": "Ex vivo biodistribution", "setting": "[1]; muscle, 60 min", "value": "0.39 ± 0.40", "unit": "%ID/g"}, {"measurement": "Ex vivo biodistribution", "setting": "[1]; pancreas, 5 min", "value": "16.19 ± 1.99", "unit": "%ID/g"}, {"measurement": "Ex vivo biodistribution", "setting": "[1]; pancreas, 15 min", "value": "5.75 ± 2.56", "unit": "%ID/g"}, {"measurement": "Ex vivo biodistribution", "setting": "[1]; pancreas, 30 min", "value": "1.26 ± 0.25", "unit": "%ID/g"}, {"measurement": "Ex vivo biodistribution", "setting": "[1]; pancreas, 60 min", "value": "0.76 ± 0.55", "unit": "%ID/g"}, {"measurement": "Ex vivo biodistribution", "setting": "[1]; small intestine, 5 min", "value": "58.87 ± 18.10", "unit": "%ID/g"}, {"measurement": "Ex vivo biodistribution", "setting": "[1]; small intestine, 15 min", "value": "58.62 ± 13.63", "unit": "%ID/g"}, {"measurement": "Ex vivo biodistribution", "setting": "[1]; small intestine, 30 min", "value": "20.55 ± 17.97", "unit": "%ID/g"}, {"measurement": "Ex vivo biodistribution", "setting": "[1]; small intestine, 60 min", "value": "26.44 ± 36.34", "unit": "%ID/g"}, {"measurement": "Ex vivo biodistribution", "setting": "[1]; spleen, 5 min", "value": "4.38 ± 0.99", "unit": "%ID/g"}, {"measurement": "Ex vivo biodistribution", "setting": "[1]; spleen, 15 min", "value": "2.12 ± 1.24", "unit": "%ID/g"}, {"measurement": "Ex vivo biodistribution", "setting": "[1]; spleen, 30 min", "value": "0.52 ± 0.07", "unit": "%ID/g"}, {"measurement": "Ex vivo biodistribution", "setting": "[1]; spleen, 60 min", "value": "0.39 ± 0.29", "unit": "%ID/g"}, {"measurement": "initial radioactive signals in peripheral organs", "setting": "[1]; spleen, heart, lungs, pancreas, stomach, small intestine, kidneys, liver", "value": "> 4", "unit": "%ID/g"}, {"measurement": "Ex vivo biodistribution", "setting": "[1]; stomach, 5 min", "value": "5.72 ± 2.69", "unit": "%ID/g"}, {"measurement": "Ex vivo biodistribution", "setting": "[1]; stomach, 15 min", "value": "5.69 ± 1.06", "unit": "%ID/g"}, {"measurement": "Ex vivo biodistribution", "setting": "[1]; stomach, 30 min", "value": "7.88 ± 5.2", "unit": "%ID/g"}, {"measurement": "Ex vivo biodistribution", "setting": "[1]; stomach, 60 min", "value": "2.41 ± 1.31", "unit": "%ID/g"}, {"measurement": "increase of radioactivity based on the AUCs", "setting": "LRRK2 [2]", "value": 28, "unit": "%"}, {"measurement": "parent fraction in mouse brain homogenate", "setting": "[3]", "value": 69, "unit": "%"}, {"measurement": "parent fraction in plasma", "setting": "[4]; 30 min post tracer administration", "value": 38, "unit": "%"}, {"measurement": "parent fraction in plasma", "setting": "[4]; 60 min post tracer administration", "value": 23, "unit": "%"}, {"measurement": "uptake in various brain regions after pretreatment of compound 3", "setting": "LRRK2 [5]", "value": "significant decrease of uptake"}]}
